What was measured:
[1] = molecular target: Influenza A endonuclease (pandemic H1N1 endonuclease, residues 1–204) (Influenza A virus, UniProt C3W5S0); format: biochemical
influenza A endonuclease = details: earlier studies with phenyl substituted 3-hydroxypyridin-2(1H)-ones; cited from earlier work

SMILES: O=c1[nH]cnc(-c2ccc(F)cc2)c1O [compound 2, 6-(4-Fluorophenyl)-5-hydroxypyrimidin-4(3H)-one]
- activity as an endonuclease inhibitor (in words) [1]: lack of activity

SMILES: N#Cc1cccc(-c2ncc(O)c(=O)[nH]2)c1 [compound 10, 3-(5-Hydroxy-6-oxo-1,6-dihydropyrimidin-2-yl)benzonitrile]
- potency compared to the 4-cyanophenyl isomer 9 [1]: approximately twice as potent

SMILES: O=c1[nH]ccc(-c2ccc(F)cc2)c1O [4-(4-fluorophenyl)-3-hydroxypyridin-2(1H)one]
- activity as endonuclease inhibitor (in words) (influenza A endonuclease): did not exhibit significant activity

SMILES: O=c1[nH]ncc(-c2ccc(F)cc2)c1O [compound 13, 5-(4-Fluorophenyl)-4-hydroxypyridazin-3(2H)-one]
- activity as an endonuclease inhibitor (in words) [1]: did not exhibit significant activity

SMILES: O=c1[nH]c(-c2ccc(-c3nnn[nH]3)cc2)ncc1O [compound 11, 2-(4-(1H-Tetrazol-5-yl)phenyl)-5-hydroxypyrimidin-4(3H)-one]
- potency relative to the 3-(tetrazoly)phenyl derivative 12 [1]: 3 fold

SMILES: O=c1[nH]cc(-c2ccc(F)cc2)[nH]c1=O [compound 1, 5-(4-Fluorophenyl)pyrazine-2,3(1H,4H)-dione]
- activity as an endonuclease inhibitor (in words) [1]: comparatively weak activity
- less potent than either 5- or 6-(4-fluorophenyl)-3-hydroxypyridin-2(1H)-one [1]: more than 80 times

Source: PMC4191602 (Journal of Medicinal Chemistry, 2014)
